Assay results from US20130281397A1, “TREATMENT OF DISEASES BY EPIGENETIC REGULATION” (RVX Therapeutics Inc., priority 2012, published 2013).
Counter-ions that a name gives are not always drawn.

Target: T1, Brd4 bromodomain 1 (Homo sapiens, UniProt O60885)
T1 construct: made in house; host or cells: E. coli BL21(DE3)
Experiment: Inhibition of binding of tetra-acetylated histone H4 and Brd4 bromodomain 1 by TR-FRET
Details: His-tagged bromodomain 200 nM, biotinylated tetra-acetylated histone H4 peptide 25-50 nM, 2 hours at room temperature
Method: Proteins were cloned and overexpressed with a N-terminal 6×His tag, then purified by nickel affinity followed by size exclusion chromatography. Briefly, E. coli BL21(DE3) cells were transformed with a recombinant expression vector encoding N-terminally […] tagged bromodomains from Brd2, Brd3, or Brd4. Cell cultures were incubated at 37° C. with shaking to the appropriate density and induced overnight with IPTG. The supernatant of lysed cells was loaded onto Ni-IDA column for purification. Eluted protein was pooled, concentrated and further purified by size exclusion chromatography. Fractions representing monomeric protein were pooled, concentrated, aliquoted, and frozen at −80° C. for use in subsequent experiments.
For inhibition assays, serially diluted test compound was added to these reactions in a 0.2% final concentration of DMSO. Final buffer concentrations were 30 mM HEPES pH 7.4, 30 mM NaCl, 0.3 mM CHAPS, 20 mM phosphate pH 7.0, 320 mM KF, 0.08% BSA). […] The binding inhibitory activity was shown by a decrease in 665 nm fluorescence relative to 620 nm. IC50 values were determined from a dose response curve.

Row | Compound | FRET activity (<50 uM)
1 | N=C(N)NCCC[C@H](N)C(=O)Oc1ccc(-c2cc3ccccc3c(=O)[nH]2)cc1 (stereo in doubt) [Example 2, 4-(1-Oxo-1,2-dihydroisoquinolin-3-yl)phenyl 2-amino-5-guanidinopentanoate trihydrochloride] | Active
2 | Cc1cc(-c2cc3ncccc3c(=O)[nH]2)cc(C)c1O [Example 5, 7-(4-hydroxy-3,5-dimethylphenyl)-1,6-naphthyridin-5(6H)-one] | Inactive
3 | COc1cc(OC)c2c(=O)[nH]c(-c3cc(C)c(OCCO)c(C)c3)cc2c1 [Example 6, 3-(4-(2-hydroxyethoxy)-3,5-dimethylphenyl)-6,8-dimethoxyisoquinolin-1(2H)-one] | Active
4 | COc1cc(OC)c2c(=O)[nH]c(-c3cc(C)c(OCCN(C)C)c(C)c3)cc2c1 [Example 7, 3-(4-(2-(dimethylamino)ethoxy)-3,5-dimethylphenyl)-6,8-dimethoxyisoquinolin-1(2H)-one] | Active
5 | COc1cc(O)nc2cc(-c3cc(C)c(O)c(C)c3)[nH]c(=O)c12 [Example 9, 2-hydroxy-7-(4-hydroxy-3,5-dimethylphenyl)-4-methoxy-1,6-naphthyridin-5(6H)-one] | Inactive
6 | COc1cc(OC)c2c(=O)[nH]c(-c3cc(C)c(O)c(C)c3)cc2n1 [Example 13, 7-(4-hydroxy-3,5-dimethylphenyl)-2,4-dimethoxy-1,6-naphthyridin-5(6H)-one] | Active
7 | COc1cc2cc(-c3cc(C)c(O)c(C)c3)n(C)c(=O)c2c(OC)c1CN1CCOCC1 [Example 14, 3-(4-hydroxy-3,5-dimethylphenyl)-6,8-dimethoxy-2-methyl-7-(morpholinomethyl)isoquinolin-1(2H)-one] | Inactive
8 | COc1cc(OC)c2c(=O)[nH]c(-c3cc(C)c(OCCN4CCOCC4)c(C)c3)cc2c1 [Example 15, 3-(3,5-dimethyl-4-(2-morpholinoethoxy)phenyl)-6,8-dimethoxyisoquinolin-1(2H)-one] | Active
9 | COc1cc(OC)c2c(=O)[nH]c(-c3cc(C)c(OCCN4CCN(C)CC4)c(C)c3)cc2c1 [Example 18, 3-(3,5-dimethyl-4-(2-(4-methylpiperazin-1-yl)ethoxy)phenyl)-6,8-dimethoxyisoquinolin-1(2H)-one] | Active
10 | COc1cc(OC)c2c(=O)[nH]c(-c3ccc(O)cc3)nc2c1 [Example 19, 2-(4-hydroxyphenyl)-5,7-dimethoxyquinazolin-4(3H)-one] | Active
11 | COc1cc(OC)c2c(=O)[nH]c(-c3ccc(OCC(=O)O)cc3)nc2c1 [Example 20, 2-(4-(5,7-dimethoxy-4-oxo-3,4-dihydroquinazolin-2-yl)phenoxy)acetic acid] | Active
12 | COc1cc(OC)c2c(=O)[nH]c(-c3ccccn3)nc2c1 [Example 21, 5,7-dimethoxy-2-(pyridin-2-yl)quinazolin-4(3H)-one] | Active
13 | COc1cc(OC)c2c(=O)[nH]c(-c3cccnc3)nc2c1 [Example 22, 5,7-dimethoxy-2-(pyridin-3-yl)quinazolin-4(3H)-one] | Active
14 | COc1cc(OC)c2c(=O)[nH]c(-c3ccncc3)nc2c1 [Example 28, 5,7-dimethoxy-2-(pyridin-4-yl)quinazolin-4(3H)-one] | Inactive
15 | Cc1cc(-c2nc3ccccc3c(=O)[nH]2)cc(C)c1OCCN1CCOCC1 [Example 29, 2-(3,5-dimethyl-4-(2-morpholinoethoxy)phenyl)quinazolin-4(3H)-one] | Inactive
16 | COc1cc(OC)c2c(=O)[nH]c(-c3ccc(N4CCOCC4)cc3)nc2c1 [Example 44, 5,7-dimethoxy-2-(4-morpholinophenyl)quinazolin-4(3H)-one] | Active

Row | Compound | FRET activity (<50 uM)
17 | COc1cc(OC)c2c(=O)[nH]c(-c3ccc(CN4CCN(C)CC4)cc3)nc2c1 [Example 54, 5,7-dimethoxy-2-(4-((4-methylpiperazin-1-yl)methyl)phenyl)quinazolin-4(3H)-one] | Active
18 | COc1cc(OC)c2c(=O)[nH]c(-c3ccc(CN4CCOCC4)cc3)nc2c1 [Example 61, 5,7-dimethoxy-2-(4-(morpholinomethyl)phenyl)quinazolin-4(3H)-one] | Active
19 | CCN1CCN(Cc2ccc(-c3nc4cc(OC)cc(OC)c4c(=O)[nH]3)cc2)CC1 [Example 62, 2-(4-((4-ethylpiperazin-1-yl)methyl)phenyl)-5,7-dimethoxyquinazolin-4(3H)-one] | Active
20 | COc1ccc2nc(-c3cc(C)c(OCCO)c(C)c3)[nH]c(=O)c2c1 [Example 76, 2-(4-(2-hydroxyethoxy)-3,5-dimethylphenyl)-6-methoxyquinazolin-4(3H)-one] | Inactive
21 | COc1cc(OC)c2c(=O)[nH]c(-c3ccccc3Cl)nc2c1 [Example 77, 2-(2-chlorophenyl)-5,7-dimethoxyquinazolin-4(3H)-one] | Inactive
22 | COc1cccc2nc(-c3cc(C)c(OCCO)c(C)c3)[nH]c(=O)c12 [Example 78, 2-(4-(2-hydroxyethoxy)-3,5-dimethylphenyl)-5-methoxyquinazolin-4(3H)-one] | Active
23 | COc1cc(OC)c2c(=O)[nH]c(-c3cccc(-c4ccc(S(C)(=O)=O)cc4)n3)nc2c1 [Example 80, 5,7-dimethoxy-2-(6-(4-(methylsulfonyl)phenyl)pyridin-2-yl)quinazolin-4(3H)-one] | Active
24 | COc1cc(OC)c2c(=O)[nH]c(-c3cccc(C)n3)nc2c1 [Example 81, 5,7-dimethoxy-2-(6-methylpyridin-2-yl)quinazolin-4(3H)-one] | Active
25 | COc1cc(OC)c2c(=O)[nH]c(-c3cccc(-c4ccc(SC)cc4)n3)nc2c1 [Example 82, 5,7-dimethoxy-2-(6-(4-(methylthio)phenyl)pyridin-2-yl)quinazolin-4(3H)-one] | Inactive
26 | COc1cc(OC)c2c(=O)[nH]c(-c3cc(C)nc(Cl)c3)nc2c1 [Example 83, 2-(2-chloro-6-methylpyridin-4-yl)-5,7-dimethoxyquinazolin-4(3H)-one] | Inactive
27 | COc1cc(OC)c2c(=O)[nH]c(-c3cc(C)c(OC)c(C)c3)nc2c1 [Example 84, 5,7-dimethoxy-2-(4-methoxy-3,5-dimethylphenyl)quinazolin-4(3H)-one] | Active
28 | COc1cc(OC)c2c(=O)[nH]c(-c3cc(C)c(N)c(C)c3)nc2c1 [Example 85, 2-(4-amino-3,5-dimethylphenyl)-5,7-dimethoxyquinazolin-4(3H)-one] | Active
29 | COc1cc(OC)c2c(=O)[nH]c(-c3cc(C)cc(C)c3)nc2c1 [Example 86, 2-(3,5-dimethylphenyl)-5,7-dimethoxyquinazolin-4(3H)-one] | Active
30 | COc1cc(OC)c2c(=O)[nH]c(-c3cc(C)c(/N=C/N(C)C)c(C)c3)nc2c1 [Example 87, (E)-N′-(4-(5,7-dimethoxy-4-oxo-3,4-dihydroquinazolin-2-yl)-2,6-dimethylphenyl)-N,N-dimethylformimidamide] | Active
31 | Cc1cc(-c2nc3ccc(Br)cc3c(=O)[nH]2)cc(C)c1O [Example 88, 6-bromo-2-(4-hydroxy-3,5-dimethylphenyl)quinazolin-4(3H)-one] | Inactive
